Measurements: ChEMBL document CHEMBL3774317, “Design and synthesis of novel tamoxifen analogues that avoid CYP2D6 metabolism” (Eur J Med Chem, 2016)

What was measured:
[1] = Cytotoxicity against human DU145 cells assessed as cell growth at 10^-6 M after 48 hrs by SRB assay; format: functional; details: DU-145, 48 h, read-out: Activity
[2] = Cytotoxicity against human SW620 cells assessed as cell growth at 10^-6 M after 48 hrs by SRB assay; format: functional; details: SW-620, 48 h, read-out: Activity
ACHN = assay: Cytotoxicity against human ACHN cells assessed as cell growth at 10^-8 M after 48 hrs by SRB assay; format: functional; details: read-out: Activity
Malme-3M = assay: Cytotoxicity against human MALME-3M cells assessed as cell growth at 10^-4 M after 48 hrs by SRB assay; format: functional; details: read-out: Activity
HT-29 [3] = assay: Cytotoxicity against human HT-29 cells assessed as cell growth at 10^-4 M after 48 hrs by SRB assay; format: functional; details: HT-29, 48 h, read-out: Activity
[4] = Cytotoxicity against human OVCAR8 cells assessed as cell growth at 10^-4 M after 48 hrs by SRB assay; format: functional; details: OVCAR-8, 48 h, read-out: Activity
MDA-MB-468 = assay: Cytotoxicity against human MDA-MB-468 cells assessed as cell growth at 10^-6 M after 48 hrs by SRB assay; format: functional; details: MDA-MB-468, 48 h, read-out: Activity
[5] = Cytotoxicity against human UO31 cells assessed as cell growth at 10^-8 M after 48 hrs by SRB assay; format: functional; details: UO-31, 48 h, read-out: Activity
KM12 [6] = assay: Cytotoxicity against human KM12 cells assessed as cell growth at 10^-5 M after 48 hrs by SRB assay; format: functional; details: KM12, 48 h, read-out: Activity
[7] = Cytotoxicity against human SNB19 cells assessed as cell growth at 10^-7 M after 48 hrs by SRB assay; format: functional; details: SNB-19, 48 h, read-out: Activity
U-251 [8] = assay: Cytotoxicity against human U251 cells assessed as cell growth at 10^-7 M after 48 hrs by SRB assay; format: functional; details: U-251, 48 h, read-out: Activity
[9] = Cytotoxicity against human TK10 cells assessed as cell growth at 10^-8 M after 48 hrs by SRB assay; format: functional; details: TK-10, 48 h, read-out: Activity
A498 [10] = assay: Cytotoxicity against human A498 cells assessed as cell growth at 10^-8 M after 48 hrs by SRB assay; format: functional; details: A498, 48 h, read-out: Activity
SK-MEL-2 = assay: Cytotoxicity against human SK-MEL-2 cells assessed as cell growth at 10^-8 M after 48 hrs by SRB assay; format: functional; details: SK-MEL-2, 48 h, read-out: Activity
[11] = Cytotoxicity against human HL-60(TB) cells assessed as cell growth at 10^-5 M after 48 hrs by SRB assay; format: functional; details: HL-60, 48 h, read-out: Activity
[12] = Cytotoxicity against human RPMI8226 cells assessed as cell growth at 10^-5 M after 48 hrs by SRB assay; format: functional; details: RPMI-8226, 48 h, read-out: Activity
[13] = Cytotoxicity against human HOP62 cells assessed as cell growth at 10^-8 M after 48 hrs by SRB assay; format: functional; details: HOP-62, 48 h, read-out: Activity
NCI-H226 [14] = assay: Cytotoxicity against human NCI-H226 cells assessed as cell growth at 10^-5 M after 48 hrs by SRB assay; format: functional; details: NCI-H226, 48 h, read-out: Activity
[15] = Cytotoxicity against human Hs 578T cells assessed as cell growth at 10^-7 M after 48 hrs by SRB assay; format: functional; details: read-out: Activity
HT-29 [16] = assay: Cytotoxicity against human HT-29 cells assessed as cell growth at 10^-6 M after 48 hrs by SRB assay; format: functional; details: HT-29, 48 h, read-out: Activity
[17] = Cytotoxicity against human RPMI8226 cells assessed as cell growth at 10^-4 M after 48 hrs by SRB assay; format: functional; details: RPMI-8226, 48 h, read-out: Activity
A549 = assay: Cytotoxicity against human A549 cells assessed as cell growth at 5 nM after 48 hrs by SRB assay; format: functional; details: A549, 48 h, read-out: Activity
T47D = assay: Cytotoxicity against human T47D cells assessed as cell growth at 5 uM after 48 hrs by SRB assay; format: functional; details: read-out: Activity
[18] = Cytotoxicity against human UO31 cells assessed as cell growth at 0.5 uM after 48 hrs by SRB assay; format: functional; details: UO-31, 48 h, read-out: Activity
[19] = Metabolic stability in human hepatocytes assessed as remaining parent compound level at 10 uM measured immediately after compound addition by LC/MS analysis; format: ADME, cell-based, Hepatocyte; details: read-out: Drug metabolism
CCRF-CEM = assay: Cytotoxicity against human CCRF-CEM cells assessed as cell growth at 5 nM after 48 hrs by SRB assay; format: functional; details: read-out: Activity
NCI-H322M [20] = assay: Cytotoxicity against human NCI-H322M cells assessed as cell growth at 5 uM after 48 hrs by SRB assay; format: functional; details: read-out: Activity
KM12 [21] = assay: Cytotoxicity against human KM12 cells assessed as cell growth at 50 uM after 48 hrs by SRB assay; format: functional; details: KM12, 48 h, read-out: Activity
[22] = Cytotoxicity against human OVCAR3 cells assessed as cell growth at 50 nM after 48 hrs by SRB assay; format: functional; details: OVCAR-3, 48 h, read-out: Activity
NCI-H226 [23] = assay: Cytotoxicity against human NCI-H226 cells assessed as cell growth at 0.5 uM after 48 hrs by SRB assay; format: functional; details: NCI-H226, 48 h, read-out: Activity
MDA-MB-435 = assay: Cytotoxicity against human MDA-MB-435 cells assessed as cell growth at 5 uM after 48 hrs by SRB assay; format: functional; details: MDA-MB-435, 48 h, read-out: Activity
[24] = Cytotoxicity against human MOLT4 cells assessed as cell growth at 50 nM after 48 hrs by SRB assay; format: functional; details: MOLT-4, 48 h, read-out: Activity
[25] = Cytotoxicity against human TK10 cells assessed as cell growth at 0.5 uM after 48 hrs by SRB assay; format: functional; details: TK-10, 48 h, read-out: Activity
[26] = Cytotoxicity against human DU145 cells assessed as cell growth at 5 uM after 48 hrs by SRB assay; format: functional; details: DU-145, 48 h, read-out: Activity
[27] = Cytotoxicity against human UACC62 cells assessed as cell growth at 50 nM after 48 hrs by SRB assay; format: functional; details: UACC-62, 48 h, read-out: Activity
[28] = Cytotoxicity against human Hs 578T cells assessed as cell growth at 0.5 uM after 48 hrs by SRB assay; format: functional; details: read-out: Activity
[29] = Cytotoxicity against human LOXIMVI cells assessed as cell growth at 50 nM after 48 hrs by SRB assay; format: functional; details: LOX IMVI, read-out: Activity
SN12C = assay: Cytotoxicity against human SN12C cells assessed as cell growth at 0.5 uM after 48 hrs by SRB assay; format: functional; details: read-out: Activity
NCI-H322M [30] = assay: Cytotoxicity against human NCI-H322M cells assessed as cell growth at 5 nM after 48 hrs by SRB assay; format: functional; details: read-out: Activity
A498 [31] = assay: Cytotoxicity against human A498 cells assessed as cell growth at 50 uM after 48 hrs by SRB assay; format: functional; details: A498, 48 h, read-out: Activity
U-251 [32] = assay: Cytotoxicity against human U251 cells assessed as cell growth at 0.5 uM after 48 hrs by SRB assay; format: functional; details: U-251, 48 h, read-out: Activity
[33] = Cytotoxicity against human PC3 cells assessed as cell growth at 50 nM after 48 hrs by SRB assay; format: functional; details: PC-3, 48 h, read-out: Activity

C/C(=C(/c1ccc(O)cc1)c1ccc(OCCN2CCCC2)cc1)c1ccccc1
growth at 1 µM [1]: 94%
growth at 1 µM [2]: 101%
growth at 0.01 µM (ACHN): 93%
growth at 100 µM (Malme-3M): -91%
growth at 100 µM (HT-29 [3]): -91%
growth at 100 µM [4]: -61%
growth at 1 µM (MDA-MB-468): 84%
growth at 0.01 µM [5]: 93%
growth at 10 µM (KM12 [6]): 12%
growth at 0.1 µM [7]: 101%
growth at 0.1 µM (U-251 [8]): 100%
growth at 0.01 µM [9]: 96%
growth at 0.01 µM (A498 [10]): 66%
growth at 0.01 µM (SK-MEL-2): 97%
growth at 10 µM [11]: -39%
growth at 10 µM [12]: -19%
growth at 0.01 µM [13]: 90%
growth at 10 µM (NCI-H226 [14]): 56%
growth at 0.1 µM [15]: 101%
growth at 1 µM (HT-29 [16]): 67%
growth at 100 µM [17]: -57%

CCCCCCCCCC(=O)Oc1ccc(/C(=C(/C)c2ccccc2)c2ccc(OCCN3CCCC3)cc2)cc1
growth at 0.005 µM (A549): 101%
growth at 5 µM (T47D): 52%
growth at 0.5 µM [18]: 61%
remaining at 0 h, 10 µM [19]: 29%
growth at 0.005 µM (CCRF-CEM): 95%
growth at 5 µM (NCI-H322M [20]): 85%
growth at 50 µM (KM12 [21]): -86%
growth at 0.05 µM [22]: 104%
growth at 0.5 µM (NCI-H226 [23]): 100%
growth at 5 µM (MDA-MB-435): 82%
growth at 0.05 µM [24]: 91%
growth at 0.5 µM [25]: 90%
growth at 5 µM [26]: 88%
growth at 0.05 µM [27]: 99%
growth at 0.5 µM [28]: 75%
growth at 0.05 µM [29]: 97%
growth at 0.5 µM (SN12C): 88%
growth at 0.005 µM (NCI-H322M [30]): 94%
growth at 50 µM (A498 [31]): -84%
growth at 0.5 µM (U-251 [32]): 67%
growth at 0.05 µM [33]: 97%
